Patent US20200023001A1, “GlycoFix (Structurally And Functionally Repaired Endothelial Glycocalyx)” (Northeastern University, priority 2018, published 2020)

Assays:
Type in all cases: cell-based, rat
[1] = tested on: heparan sulfate (HS) of RFPEC glycocalyx; assay: HS expression (coverage) in RFPEC glycocalyx by immunofluorescence confocal microscopy (Example 1)
Experimental: (§1) Cell Culture. Rat fat pad ECs (RFPEC) at passages 20 to 39 were offspring of cells isolated from rat epididymal fat pad and provided by Dr. Mia Thi of Albert Einstein College of Medicine (Bronx, N.Y.). […] The RFPECs are immortalized, making it possible to use late passages. RFPEC were seeded on 12-14-mm diameter and 0.13-0.17-mm thick glass coverslips at a seeding density of 15,000-20,000 cells/cm^2. Cells were cultured in Dulbecco's Modified Eagle Medium (DMEM, Invitrogen, USA) with 1% penicillin-streptomycin (PS) and 10% fetal bovine serum (FBS, Gibco Life Technologies). Cells were maintained in humidity at 37° C. and 5% CO2. RFPECs reached full confluence in 3 days.
(§2) Cultured RFPECs produce thick and robust GCX in this time period. At 3 days post-seeding the RFPECs' culture medium was supplemented with 1% BSA in place of FBS to stabilize the GCX during preservation and immunolabeling (described below). For enzyme treatment experiments, 25 micro-international units per milliliter (μIU/ml) of heparinase III (Hep III; IBEX, Canada) were added to BSA-containing culture media for 2 hours to degrade HS from the GCX [46]. HepIII was washed out, and the wash-out was followed by a 16-hour incubation of RFPECs in regular BSA-containing media. In self-recovery experiments, RFPEC GCX was left to recover for 24 hours after enzyme degradation. The time frame was chosen in accordance with the 20-hour time period that is required for HS restoration to occur on the surface of ECs. For HS recovery experiments, exogenous HS and/or S1P were applied for 16 hours to accommodate the communication test as an assessment of functional glycocalyx recovery. […] After HS was degraded with HepIII, it was replaced by a 16-hour feeding of RFPECs with 59 μg/ml exogenous porcine mucosal HS (Celsus, Cincinnati, Ohio), based on published serum concentration of HS [43]. In sphingosine-1-phosphate experiments, culture media containing enzyme was substituted for media containing either 10 μM of S1P (Sigma-Aldrich) or a combination of 59 μg/ml of HS and 10 μM of S1P for 16 hours after enzyme degradation.
Immunostaining. RFPECs have high affinity to most antibodies that are available for performing immunocytochemistry. For heparan sulfate (HS), RFPEC monolayers were treated with 2% paraformaldehyde/1% glutaraldehyde in phosphate buffered saline (PBS) for fixation, treated with 2% goat serum in PBS to block non-specific ligands, and stained for three nights at 4° C. with a 1:100 10E4-epitope HS antibody (Amsbio).
As specified by the manufacturer, the HS antibody reacts with many types of heparan sulfate. The reactivity of the HS antibody is abolished after treatment with Hep III, indicating antibody specificity. […]

[2] = tested on: Cx43 at RFPEC borders; assay: Cx43 expression at EC borders, immunostaining and confocal microscopy
Experimental: as §1, §2
As specified by the manufacturer, the HS antibody reacts with many types of heparan sulfate. The reactivity of the HS antibody is abolished after treatment with Hep III, indicating antibody specificity. For secondary detection of HS, Alexa Flour 488 conjugated goat anti-mouse IgG/IgM (H+L; Life Technologies) secondary antibody was used. RFPECs to be processed for connexin 43 (Cx43) were fixed in 4% paraformaldehyde, permeabilized in 0.2% Triton X-100 (Fisher), and blocked in 5% goat serum combined with 0.2% Triton X-100. Connexin 43 staining was performed overnight at 4° C. with 1:100 mouse monoclonal Cx43 antibody (Millipore). […] Secondary Cx43 detection was done with Alexa Flour 488 conjugated goat anti-mouse IgG. […] These controls confirmed that the staining observed in the RFPECs is not an artefact.
Confocal immunofluorescence microscopy imaging and analysis. Alexa Fluor 488 fluorescent RFPECs were mounted with Vectashield containing DAPI (Vector Labs) and imaged with a Zeiss LSM 700 laser scanning confocal microscope. HS and Cx43 were imaged at 63× magnification (oil objective) and 40× magnification (oil objective), respectively. Lasers with excitation wavelengths of 490 nm (for HS or Cx43) and 350 nm (for DAPI) were used to obtain XY-plane slices. Laser gain and transmission were kept below fluorophore saturation levels. Confocal slice intervals were 0.2 μm for HS and 0.7 μm for Cx43. […]

[3] = tested on: Cx-containing gap junctions of RFPEC; assay: Lucifer Yellow scratch-loading dye transfer assay (gap junction communication)
Experimental: as §1, §2
Dye transfer assay, fluorescence microscopy and image analysis. Gap junction functionality was assessed by loading Lucifer Yellow in RFPECs, using a scratch technique, and observing the extent of Lucifer Yellow transfer from loaded cells to neighboring cells (FIG. 7B). Lucifer Yellow has a molecular weight of 457.3 and can only enter cells via broken membranes or via gap junctions. The scratch loading technique involved pre-incubation of RFPECs (for 1 minute) with calcium- and magnesium-free Hanks' Balanced Salt Solution (HBSS; Life Technology) containing 5 mg/ml Lucifer Yellow dye (Life Technology). A 5-μm diameter tip scribe (Ted Pella, Inc, USA) was then used to carefully create a straight scratch in the RFPEC monolayer and to allow the dye to enter the scratched cells. After the dye was loaded, it spread via open gap junctions to adjacent intact cells, with the extent of Lucifer Yellow spread reaching a plateau by 10 minutes after loading. At that point, excess dye was washed out and RFPECs were imaged at 10× magnification (dry objective) using a Zeiss Observer Z1 fluorescence microscope. From recorded images of dye transfer after scratch loading, ImageJ randomly selected dye spread locations that would be quantified along the scratch. At those random locations, lines perpendicular to the scratch axis were drawn, and the intact fluorescent cells (scratched cells excluded) were counted. […]

[4] = RFPEC, Hep III, then 16 h with or without 59 μg/ml HS and/or 10 μM S1P, mean±SEM
[5] = after Hep III, HS 59 μg/ml, S1P 10 μM

CCCCCCCCCCCCC/C=C/[C@@H](O)[C@@H](N)COP(=O)(O)O [S1P, sphingosine-1-phosphate]
HS expression in GCX, result in words (FIG. 2 legend) ([1]; 25 μIU/ml Hep III, HS 59 μg/ml, S1P 10 μM): significantly recovered the expression of HS in GCX, back to baseline conditions | HS coverage of cell surfaces ([1]; RFPEC, Hep III 2 hours, probed 16 hours after, with or without 59 μg/ml exogenous HS and/or 10 μM S1P for the 16 hours, mean±SEM): 71.97±5.02% | Cx43 distribution along the perimeter of the cells [2, 4]: 34.81±5.16% | Cx43 distribution/expression, result in words (FIG. 3 legend) [2, 5]: did not show a significant restoration of Cx43 expression | Lucifer Yellow dye spread, neighboring cells receiving dye per scratch-loaded cell [3, 4]: 2.06±0.08 cells | Lucifer Yellow dye transfer, result in words (FIG. 4 legend) [3, 5]: did not improve cell-to-cell communication

C=C1[C@@H](C)[C@H]2[C@H](Cc3ccccc3)NC(=O)[C@]23[C@H](OC(C)=O)/C=C/[C@@](C)(O)C(=O)[C@@H](C)C/C=C/[C@H]3[C@@H]1O [cytochalasin D]
effect of actin disruption on cell-to-cell movement of Lucifer Yellow dye ([3]; preliminary studies, data not shown): bars cell-to-cell movement of Lucifer Yellow dye
